In patent EP0527889B1, “QUINOLIZINONE TYPE COMPOUNDS” (priority 1990, dated 1991):
Converted amounts (≈) assume the structure as drawn. Structures can show the parent of a compound that is named as a salt.

How the values were obtained:
Test in all cases: In vitro antibacterial activity, MIC by agar dilution
Format in all cases: cell-based
Details in all cases: BHI agar, 35-37°C, 20-24 hours, unit assumed
[1] = system: Staphylococcus aureus NCTC 10649
Description: (§1) Each plate was inoculated with 1:100 (or 1:10 for slow growing strains, primarily Micrococcus and Streptococcus) dilutions of up to 32 different microorganisms, using a Steers replicator block calibrated to deliver approximately 10^4 colony forming units (CFUs). The inoculated plates were incubated at from about 35°C to about 37°C for approximately 20-24 hours. In addition, a control plate using BHI agar containing no test compound was prepared and incubated at the beginning and at the end of each test. Ciprofloxacin was used as the control antibiotic.
(§2) The MIC was defined as the lowest concentration of test compound yielding no growth (a slight haze or sparsely isolated colonies at the inoculum spot) as compared to the growth control containing no test compound.

[2] = system: Staphylococcus aureus A-5278
Description: as §1, §2

[3] = system: Acinetobacter calcoaceticus CMX 669
Description: as §1, §2

[4] = system: Pseudomonas aeruginosa 2862
Description: as §1, §2

[5] = system: Escherichia coli SS
Description: as §1, §2

[6] = system: Streptococcus pyrogenes CONST
Description: as §1, §2

[7] = system: Staphylococcus epidermidis 3519
Description: as §1, §2

[8] = system: Staphylococcus aureus CMX 553
Description: as §1, §2

[9] = system: Pseudomonas aeruginosa 5263
Description: as §1, §2

[10] = system: Streptococcus agalactaciae CMX 508
Description: as §1, §2

[11] = system: Providencia stuartii CMX 640
Description: as §1, §2

[12] = system: Streptococcus bovis A5169
Description: as §1, §2

[13] = system: Staphylococcus aureus 1775
Description: as §1, §2

[14] = system: Escherichia coli H560
Description: as §1, §2

[15] = system: Streptococcus pyrogenes EES61
Description: as §1, §2

[16] = system: Pseudomonas aeruginosa K799/WT
Description: as §1, §2

[17] = system: Streptococcus pyrogenes 2548 INDUC
Description: as §1, §2

[18] = system: Enterococcus faecium ATCC 8043
Description: as §1, §2

[19] = system: Micrococcus luteus ATCC 9341
Description: as §1, §2

[20] = system: Staphylococcus aureus ATCC 6538P
Description: as §1, §2

[21] = system: Escherichia coli JUHL
Description: as §1, §2

[22] = system: Pseudomonas aeruginosa K799/61
Description: as §1, §2

[23] = system: Escherichia coli KNK 437
Description: as §1, §2

[24] = system: Pseudomonas cepacia 296I
Description: as §1, §2

[25] = system: Pseudomonas aeruginosa A5007
Description: as §1, §2

[26] = system: Staphylococcus aureus A5177
Description: as §1, §2

[27] = system: Staphylococcus aureus 642A
Description: as §1, §2

[28] = system: Pseudomonas aeruginosa BMH10
Description: as §1, §2

[29] = system: Escherichia coli DC-2
Description: as §1, §2

[30] = system: Klebsiella pneumoniae ATCC 8045
Description: as §1, §2

[31] = system: Enterobacter aerogenes ATCC 13048
Description: as §1, §2

[32] = system: Micrococcus luteus ATCC 4698
Description: as §1, §2

| Structure (SMILES) | MIC values [1] | MIC values [3] | MIC values [5] | MIC values [6] | MIC values [7] | MIC values [8] | MIC values [9] | MIC values [10] | MIC values [14] | MIC values [15] | MIC values [16] | MIC values [18] | MIC values [19] | MIC values [20] | MIC values [21] | MIC values [22] | MIC values [23] | MIC values [24] | MIC values [26] | MIC values [28] | also measured |
| --- | --- | --- | --- | --- | --- | --- | --- | --- | --- | --- | --- | --- | --- | --- | --- | --- | --- | --- | --- | --- | --- |
| O=C(O)c1cn(C2CC2)c2cc(N3CCNCC3)c(F)cc2c1=O [Cntl, Ciprofloxacin, reference compound] | 0.39 µg/mL (≈ 1.18 µM) | 0.39 µg/mL (≈ 1.18 µM) | 0.005 µg/mL (≈ 0.0151 µM) | 0.78 µg/mL (≈ 2.35 µM) | 0.39 µg/mL (≈ 1.18 µM) | 0.78 µg/mL (≈ 2.35 µM) | 12.5 µg/mL (≈ 37.7 µM) | 0.39 µg/mL (≈ 1.18 µM) | 0.01 µg/mL (≈ 0.0302 µM) | 0.39 µg/mL (≈ 1.18 µM) | 0.1 µg/mL (≈ 0.302 µM) | 0.39 µg/mL (≈ 1.18 µM) | 1.56 µg/mL (≈ 4.71 µM) | 0.2 µg/mL (≈ 0.604 µM) | 0.01 µg/mL (≈ 0.0302 µM) | 0.02 µg/mL (≈ 0.0604 µM) | 0.2 µg/mL (≈ 0.604 µM) | 3.1 µg/mL (≈ 9.36 µM) | 0.39 µg/mL (≈ 1.18 µM) | 0.1 µg/mL (≈ 0.302 µM) | MIC values [2]: 0.39 µg/mL (≈ 1.18 µM); MIC values [4]: 25 µg/mL (≈ 75.4 µM); MIC values [11]: 0.78 µg/mL (≈ 2.35 µM); MIC values [12]: 1.56 µg/mL (≈ 4.71 µM); MIC values [13]: > 100 µg/mL; MIC values [17]: 0.39 µg/mL (≈ 1.18 µM); MIC values [25]: 0.1 µg/mL (≈ 0.302 µM); MIC values [27]: 0.39 µg/mL (≈ 1.18 µM); MIC values [29]: 0.2 µg/mL (≈ 0.604 µM); MIC values [30]: 0.02 µg/mL (≈ 0.0604 µM); MIC values [31]: 0.05 µg/mL (≈ 0.151 µM); MIC values [32]: 0.78 µg/mL (≈ 2.35 µM) |
| NC1CCN(c2nc3c(C4CC4)cc(C(=O)O)c(=O)n3cc2F)C1 (stereo not drawn) [Example 157, 2-(3-Aminopyrrolidin-1-yl)-9-cyclopropyl-3-fluoro-6H-6-oxo-pyrido[1,2-a]pyrimidine-7-carboxylic acid hydrochloride salt] | 0.2 µg/mL | 0.2 µg/mL | 0.01 µg/mL | 1.56 µg/mL | 0.39 µg/mL | 0.39 µg/mL | 50 µg/mL | 1.56 µg/mL | 0.02 µg/mL | 1.56 µg/mL | 0.2 µg/mL | 1.56 µg/mL | 3.1 µg/mL | 0.2 µg/mL | 0.02 µg/mL | 0.05 µg/mL | 0.39 µg/mL | 3.1 µg/mL | 0.39 µg/mL | 0.2 µg/mL | MIC values ([2]; hydrochloride salt): 0.39 µg/mL; MIC values ([4]; hydrochloride salt): 25 µg/mL; MIC values ([11]; hydrochloride salt): 1.56 µg/mL; MIC values ([12]; hydrochloride salt): 3.1 µg/mL; MIC values ([13]; hydrochloride salt): 25 µg/mL; MIC values ([17]; hydrochloride salt): 0.39 µg/mL; MIC values ([25]; hydrochloride salt): 0.39 µg/mL; MIC values ([27]; hydrochloride salt): 0.39 µg/mL; MIC values [29]: 0.39 µg/mL; MIC values ([30]; hydrochloride salt): 0.02 µg/mL; MIC values ([31]; hydrochloride salt): 0.02 µg/mL; MIC values [32]: 1.56 µg/mL |
| CN1CCN(c2nc3c(-c4ccc(F)cc4F)cc(C(=O)O)c(=O)n3cc2F)CC1 [Example 159, 9-(2,4-Difluorophenyl)-3-fluoro-2-(4-methylpiperazin-1-yl)-6H-6-oxopyridol[1,2-a]pyrimidine-7-carboxylic acid] | 0.2 µg/mL (≈ 0.478 µM) | 0.78 µg/mL (≈ 1.86 µM) | 0.02 µg/mL (≈ 0.0478 µM) | 3.1 µg/mL (≈ 7.41 µM) | 0.39 µg/mL (≈ 0.932 µM) | 0.39 µg/mL (≈ 0.932 µM) | > 100 µg/mL | 3.1 µg/mL (≈ 7.41 µM) | 0.39 µg/mL (≈ 0.932 µM) | 3.1 µg/mL (≈ 7.41 µM) | 3.1 µg/mL (≈ 7.41 µM) | 6.2 µg/mL (≈ 14.8 µM) | 25 µg/mL (≈ 59.8 µM) | 0.2 µg/mL (≈ 0.478 µM) | 0.39 µg/mL (≈ 0.932 µM) | 0.39 µg/mL (≈ 0.932 µM) | 6.2 µg/mL (≈ 14.8 µM) | 25 µg/mL (≈ 59.8 µM) | 0.39 µg/mL (≈ 0.932 µM) | 3.1 µg/mL (≈ 7.41 µM) | MIC values [2]: 0.2 µg/mL (≈ 0.478 µM); MIC values [4]: > 100 µg/mL; MIC values [11]: 25 µg/mL (≈ 59.8 µM); MIC values [12]: 12.5 µg/mL (≈ 29.9 µM); MIC values [13]: > 100 µg/mL; MIC values [17]: 3.1 µg/mL (≈ 7.41 µM); MIC values [25]: 6.2 µg/mL (≈ 14.8 µM); MIC values [27]: 0.39 µg/mL (≈ 0.932 µM); MIC values [29]: 6.2 µg/mL (≈ 14.8 µM); MIC values [30]: 0.2 µg/mL (≈ 0.478 µM); MIC values [31]: 0.78 µg/mL (≈ 1.86 µM); MIC values [32]: 12.5 µg/mL (≈ 29.9 µM) |
